According to patent publication US8058468B2, “Carbamate antibiotics” (Nederlandse Organisatie Voor …, priority 2005, dated 2011):
Values after ≈ are worked out from the molar mass of the structure shown. Read-outs that look alike come from different tables or passages of the source.

How the values were obtained:
[1] = test system: multiple strains of S. aureus; experiment: MIC test on multiple strains of S. aureus; format: cell-based, Staphylococcus aureus; conditions: for MIC 50 / MIC 90: 59-60 tested S. aureus strains; for Range MIC (lowest-highest): highest: highest value over 59-60 tested S. aureus strains; for Range MIC (lowest-highest): lowest: lowest value over 59-60 tested S. aureus strains
Procedure: MIC test were performed according to standard methodology: M7-A6-“Methods for Dilution Antimicrobial Susceptibility Tests for Bacteria That Grow Aerobically”; Approved Standard, Sixth Edition Clinical and Laboratory Standards Institute 2005 (CLSI/formerly NCCLS). The MIC values are expressed as a range between the lowest value and the highest value found in these experiments. Both the average MIC50 and MIC90 are indicated in bold.

S. aureus ATCC 29213 = experiment: MIC test (CLSI M7-A6), single strain; format: cell-based; conditions: Staphylococcus aureus, ATCC29213; single strain ATCC 29213
Procedure: (§1) MIC test were performed according to standard methodology: M7-A6-“Methods for Dilution Antimicrobial Susceptibility Tests for Bacteria That Grow Aerobically”; Approved Standard, Sixth Edition Clinical and Laboratory Standards Institute 2005 (CLSI/formerly NCCLS).
(§2) Table 2 lists the results of 3 different compounds according to Formula (I) on single strains of S. aureus as MIC values expressed in micrograms per milliliter.

S. aureus N315 = experiment: MIC test (CLSI M7-A6), single strain; format: cell-based; conditions: Staphylococcus aureus
Procedure: as §1, §2

S. aureus MW2 = experiment: MIC test (CLSI M7-A6), single strain; format: cell-based; conditions: Staphylococcus aureus
Procedure: as §1, §2

[2] = Observation scoring for adverse side effects in infected treated mice; format: in vivo, mouse; conditions: all animals
Procedure: (§3) The purpose of this study was to investigate the antibiotic efficacy of different doses of compound BAS00674552 against a local infection with MRSA 2141 in the mouse. Thirty mice were treated intravenously with 0.5, 5.0 or 50 mg/kg body weight, respectively. The observation period was three days. Outgrowth of the infection was used to establish drug efficacy.

S. aureus ATCC6538 = experiment: Further MIC tests, performed as in Example 1; format: cell-based; conditions: Staphylococcus aureus
Procedure: as §1
Further MIC tests, performed as in Example 1, were performed on several of the above synthesized compounds.

MRSA 2141 = experiment: Local thigh muscle infection with MRSA 2141 in the mouse, CFU outgrowth; format: in vivo; conditions: for Log reduction of MRSA 2141 CFU in thigh muscle: vs vehicle; for Reduction of bacterial outgrowth against the untreated group: P≦0.01
Procedure: as §3
The test substances were administered as a solution in dimethylsulfoxide (DMSO). The test substance was administered as 20 μl injections per mouse at all dose levels. Vancomycin was used as positive control and injected intravenously as a 10 mg/ml solution in DMSO (20 μl per mouse).
The study was performed according to Lab-Sop-Amp-Anim-002 and Lab-Sop-Amp-Bac-003. In short, mice were injected with 11E05 MRSA bacteria, strain 2141 in the right thigh muscle, followed one day later by an i.v. injection of the test compound, vancomycin or vehicle in the tail vein. 24 hours later mice were sacrificed, blood was collected by heart puncture and the right thigh muscle was removed. Plasma was prepared from blood samples and stored at −80°±10° C. for possible future analysis. Thigh muscles were weighted and homogenized using an Ultra-Turrax® and dilutions of the homogenate were prepared in saline. Limiting dilutions were plated onto agar plates and two days later the number of MRSA 2141 CFU were determined for each individual mouse as an indication of bactericidal activity of the compound. Additionally, tests were performed to determine if the bacteria used are still oxacillin resistant Staphylococcus aureus. This was done before injection and on pooled thigh muscle isolates per group. For this purpose Staphaurex® (Remel Europe Ltd., Crossways, UK) and ORSAB®+supplements (Oxoid Ltd., Basingstoke, UK) were used. In vivo antibiotic activity is determined by a CFU reduction of >90% (1 log reduction) in comparison to the negative control (vehicle only).
The study was comprised five groups of 10 females each.

[3] = duplo (duplicate determination), read-out: MIC-value S. aureus ATCC6538 duplo
[4] = first determination, read-out: MIC-value S. aureus ATCC6538

MIC 50 [1] [microgram/milliliter]	MIC 90 [1] [microgram/milliliter]	Range MIC (lowest-highest): highest [1] [microgram/milliliter]	Range MIC (lowest-highest): lowest [1] [microgram/milliliter]	MIC (S. aureus ATCC 29213) [µg/mL]	MIC (S. aureus N315) [µg/mL]	MIC (S. aureus MW2) [µg/mL]	SMILES	MIC (S. aureus ATCC6538; [3]) [µg/mL]	MIC (S. aureus ATCC6538; [4]) [µg/mL]	also measured
>32	>32	>32	>32	16 (≈ 49.8 µM)	8 (≈ 24.9 µM)	16 (≈ 49.8 µM)	CCOC(=O)NCCOC(=O)Nc1ccc(Cl)c(Cl)c1 [BAS 00212008, (3,4-dichloro-phenyl)-carbamic acid 2-ethoxycarbonylamino-ethyl ester]	–	–	–
16	32	>32	8	8 (≈ 22 µM)	8 (≈ 22 µM)	8 (≈ 22 µM)	CCC(COC(=O)Nc1ccc(Cl)c(Cl)c1)NC(=O)OC(C)C (centres unmarked) [BAS 00674544, (3,4-dichloro-phenyl)-carbamic acid 2-isopropoxycarbonylamino-butyl ester]	–	–	–
–	–	–	–	–	–	–	Cc1ccc(NC(=O)OC(C)CNC(=O)OCC(C)C)cc1 (centres unmarked) [TAC 1_005, p-tolyl-carbamic acid 2-isobutoxycarbonylamino-1-methyl-ethyl ester]	50 (≈ 162 µM)	100 (≈ 324 µM)	–
–	–	–	–	–	–	–	CC(C)COC(=O)NCC(C)OC(=O)Nc1ccc(C(F)(F)F)cc1 (centres unmarked) [TAC 1_007, (4-trifluoromethyl-phenyl)-carbamic acid 2-isobutoxycarbonylamino-1-methyl-ethyl ester]	25 (≈ 69 µM)	12.5 (≈ 34.5 µM)	–
–	–	–	–	–	–	–	NC(=O)OCCOC(=O)Nc1ccc(Cl)c(Cl)c1 [TAC 1_009, (3,4-dichloro-phenyl)-carbamic acid 2-carbamoyloxy-ethyl ester]	50 (≈ 171 µM)	100 (≈ 341 µM)	–
–	–	–	–	–	–	–	CNC(=O)OCCOC(=O)Nc1ccc(Cl)c(Cl)c1 [TAC 1_010, (3,4-dichloro-phenyl)-carbamic acid 2-methylcarbamoyloxy-ethyl ester]	50 (≈ 163 µM)	100 (≈ 326 µM)	–
–	–	–	–	–	–	–	CCNC(=O)OCCOC(=O)Nc1ccc(Cl)c(Cl)c1 [TAC 1_011, (3,4-dichloro-phenyl)-carbamic acid 2-ethylcarbamoyloxy-ethyl ester]	100 (≈ 311 µM)	100 (≈ 311 µM)	–
–	–	–	–	–	–	–	CN[C@H](CC(C)C)C(=O)N[C@H]1C(=O)N[C@@H](CC(N)=O)C(=O)N[C@H]2C(=O)N[C@H]3C(=O)N[C@H](C(=O)N[C@H](C(=O)O)c4cc(O)cc(O)c4-c4cc3ccc4O)[C@H](O)c3ccc(c(Cl)c3)Oc3cc2cc(c3O[C@@H]2O[C@H](CO)[C@@H](O)[C@H](O)[C@H]2O[C@H]2C[C@](C)(N)[C@H](O)[C@H](C)O2)Oc2ccc(cc2Cl)[C@H]1O [vancomycin, Vancomycin, reference compound]	–	–	Log reduction of MRSA 2141 CFU in thigh muscle (MRSA 2141; positive control, 10 mg/ml i.v., 20 μl per mouse (10 mg/kg)): Over 1 Log

SMILES	MIC 50 [1] [microgram/milliliter]	MIC 90 [1] [microgram/milliliter]	Range MIC (lowest-highest): highest [1] [microgram/milliliter]	Range MIC (lowest-highest): lowest [1] [microgram/milliliter]	MIC (S. aureus ATCC 29213) [µg/mL]	MIC (S. aureus N315) [µg/mL]	MIC (S. aureus MW2) [µg/mL]	MIC (S. aureus ATCC6538; [3]) [µg/mL]	MIC (S. aureus ATCC6538; [4]) [µg/mL]	also measured
CC(C)COC(=O)NCC(C)OC(=O)Nc1ccc(Cl)c(Cl)c1 (centres unmarked) [BAS 00674552, (3,4-dichloro-phenyl)-carbamic acid 2-isobutoxycarbonylamino-1-methyl-ethyl ester]	8	16	>32	4	8 (≈ 22 µM)	4 (≈ 11 µM)	4 (≈ 11 µM)	6.25 (≈ 17.2 µM)	25 (≈ 68.8 µM)	Score on observation scoring sheets (DEC guidelines) [2]: < 8; Adverse side effects ([2]; single i.v. dose 0.5-50 mg/kg): no signs of adverse side effects were observed; Log reduction of MRSA 2141 CFU in thigh muscle (MRSA 2141; 5 mg/kg single i.v. dose, 24 h after dosing): Approximately 2 Log; Reduction of bacterial outgrowth against the untreated group (MRSA 2141; 5 mg/kg): significant reduction of bacterial outgrowth; Log reduction of MRSA 2141 CFU in thigh muscle (MRSA 2141; 50 mg/kg single i.v. dose, 24 h after dosing): Approximately 2 Log; Reduction of bacterial outgrowth against the untreated group (MRSA 2141; 50 mg/kg): significant reduction of bacterial outgrowth; Efficacy against local MRSA 2141 infection (statistical analysis) (MRSA 2141; all doses, P≦0.001): effective
